Experiments:
Type in all cases: cell-based, human
[1] = system: OCC1 (CD44-/MyD88- ovarian cancer cells); test: IC50 against chemosensitive ovarian cancer cells OCC1; settings: read-out: IC50 (percentage of viable cells)
Experimental: CD44+/MyD88+ ovarian cancer stem cell clones (OCSC1 and OCSC2) and CD44−/MyD88− ovarian cancer cells (OCC1 and OCC2) were isolated from either tumor tissue or ascites obtained from patients diagnosed with stage III/IV serous ovarian cancer and propagated (Alvero, et al., 2009, Cell Cycle 8:158-166; Chefetz, et al., 2013, Cell Cycle 12:511-521). The epithelial nature of the isolated cells was determined by immunostaining for Ck18. Purity of the cultures based on CD44 expression by flow cytometry and chemoresistance were routinely tested. […]
Effect of each compound on cell morphology, growth, and viability was assessed using a kinetic live cell imaging system (Incucyte, Essen Bioscience). Proliferation was calculated as previously described (Alvero, et al., 2011, Mol. Cancer Ther. 10:1385-1393) using metrics from either confluence or fluorescent count from nuclear-restricted RFP or GFP. Cell death was quantified; similarly CELLTOX® Green Cytotoxicity Assay (Promega, Madison, Wis.). IC50 was calculated as described using GraphPad Prism (GraphPad Software Inc., LaJolla, Calif.).
Once the efficacy of TRX-E-002-1 against chemoresistant OCSC was established, its activity against two clones of chemosensitive ovarian cancer cells (OCC1 and OCC2) was determined.

[2] = system: OCSC2 spheroids; test: 3D spheroid integrity by kinetic imaging; settings: compared to the control; dose-dependent
Experimental: CD44+/MyD88+ ovarian cancer stem cell clones (OCSC1 and OCSC2) and CD44−/MyD88− ovarian cancer cells (OCC1 and OCC2) were isolated from either tumor tissue or ascites obtained from patients diagnosed with stage III/IV serous ovarian cancer and propagated (Alvero, et al., 2009, Cell Cycle 8:158-166; Chefetz, et al., 2013, Cell Cycle 12:511-521). The epithelial nature of the isolated cells was determined by immunostaining for Ck18. Purity of the cultures based on CD44 expression by flow cytometry and chemoresistance were routinely tested. Stable expression of nuclear-restricted red fluorescent (in OCSCs) or green fluorescent proteins (in OCCs) was performed by transduction using NUCLIGHT® Red or Green Lentivirus Reagent (Essen Bioscience, Ann Arbor, Mich.). Spheroids were formed from OCSCs by culturing in ultra-low attachment multi-well plates (Corning, Inc., Corning, N.Y.).
Spheroids represent a 3D in vitro tumor model of multiple cell layers that mimic tumors in vivo. In ovarian cancer, spheroid cultures not only mimic ovarian solid tumors, but also ovarian cancer cells found in malignant ascites. Spheroid cultures allow one to test the capacity of compounds to diffuse through multiple layers of cells and induce cell death. It further allows one to test the efficacy of treatment against the mesenchymal cancer subtype. […]

[3] = system: c-Jun; test: Phosphokinase array / Western blot for phosphorylated and total c-Jun in OCSCs
Experimental: (§1) SDS-PAGE and Western blots were performed using 20 μg of total protein lysate as described in Kamsteeg, et al., 2003, Oncogene 22:2611-2620. Antibodies used were: mouse anti-phospho ERK (Santa Cruz Biotechnology, Inc., Dallas, Tex.); rabbit anti-phospho c-Jun, rabbit anti c-Jun, rabbit anti-ERK, rabbit anti-cleaved caspase 3 all from Cell Signaling Technology, Danvers, Mass.; and mouse anti-GAPDH (Sigma-Aldrich).
(§2) In order to elucidate the early pathways responsible for the sustained cytotoxic effect observed with TRX-E-002-1, a phosphokinase array was performed. The phosphokinase array detected relative phosphorylation levels of 43 different kinases involved in major signal transduction pathways.
(§3) The western blot results also validated the decrease in p-ERK in cells treated with TRX-E-002-1. […] The effect on the phosphorylation status of the kinases (upregulation of p-cJun and downregulation of p-ERK) was observed as early as 2 h post-treatment and maintained up to 24 h (FIG. 4A). The phosphorylation levels of c-Jun and ERK correlate with the differential ability of the two doses of TRX-E-002-1 to induce a sustained cytotoxic effect. […] This correlates with the ability of this dose of TRX-E-002-1 to maintain the upregulation of p-cJun and downregulation of p-ERK even when the compound is removed (FIG. 4B). […]

[4] = system: ERK; test: Phosphokinase array / Western blot for phosphorylated ERK in OCSCs; settings: compared to controls; from 2 h up to 24 h post-treatment
Experimental: as §1, §2, §3

[5] = system: caspase-9; test: Caspase Glo assay, caspase-9; settings: 0.245 μM; at 16 and 24 h post treatment
Experimental: Total protein was extracted and measured as described in Kamsteeg, et al., 2003, Oncogene 22:2611-2620. Activity of caspase 3/7 and caspase 9 was quantified using Caspase Glo assay (Promega).
The activities of caspase-3/7 and caspase-9 were assessed at 2, 4, 6, 8, 16, and 24 hours post-treatment with TRX-E-002-1.

[6] = system: cleaved/active caspase-3; test: Western blot for cleaved caspase-3 in OCSC transfected with scramble or c-Jun siRNA; settings: 2.45 μM for 2 hours then recovery
Experimental: as §1
To determine the requirement for c-Jun activation in TRX-E-002-1-induced apoptosis, siRNA was used to knock-down c-Jun in chemoresistant OCSC. […] This upregulation was maintained, even when treatment was removed and cells were allowed to recover (FIG. 5C).

## COc1cc(C2COc3c(ccc(O)c3C)C2c2ccc(O)cc2)cc(OC)c1O (single isomer, unassigned) [TRX-E-002-1]
[1]
  IC50: 68 nM
[2]
  amount of intact spheroids: significantly decreased
[3]; Western blot time course
  total c-Jun: time-dependent increase
[3]; compared to controls, from 2 h up to 24 h post-treatment
  levels of phosphorylated c-Jun (p-c-Jun): higher levels
[4]
  levels of phosphorylated-ERK (p-ERK): lower levels
[5]
  caspase-9 activity: significant increase
[6]; c-Jun knocked-down by siRNA
  cleaved/active caspase-3: not detectable
[6]; scramble siRNA
  cleaved/active caspase-3: appearance of cleaved/active caspase-3
